From paper PMC8949104, “Bioactivity-Guided Separation of Anti-Cholinesterase Alkaloids from Uncaria rhynchophlly (Miq.) Miq. Ex Havil Based on HSCCC Coupled with Molecular Docking” (Molecules, 2022)
Where two headings read alike, the source gives them in different places.

What was measured:
Acetyl-cholinesterase = target: T1, Acetyl-cholinesterase (Electrophorus electricus, UniProt O42275); test: biochemical; format: biochemical
T1 construct: Acetyl-cholinesterase was from electric eel; purchased Sigma-Aldrich; host or cells: electric eel (natural source)
T1 sequence (O42275 24-633): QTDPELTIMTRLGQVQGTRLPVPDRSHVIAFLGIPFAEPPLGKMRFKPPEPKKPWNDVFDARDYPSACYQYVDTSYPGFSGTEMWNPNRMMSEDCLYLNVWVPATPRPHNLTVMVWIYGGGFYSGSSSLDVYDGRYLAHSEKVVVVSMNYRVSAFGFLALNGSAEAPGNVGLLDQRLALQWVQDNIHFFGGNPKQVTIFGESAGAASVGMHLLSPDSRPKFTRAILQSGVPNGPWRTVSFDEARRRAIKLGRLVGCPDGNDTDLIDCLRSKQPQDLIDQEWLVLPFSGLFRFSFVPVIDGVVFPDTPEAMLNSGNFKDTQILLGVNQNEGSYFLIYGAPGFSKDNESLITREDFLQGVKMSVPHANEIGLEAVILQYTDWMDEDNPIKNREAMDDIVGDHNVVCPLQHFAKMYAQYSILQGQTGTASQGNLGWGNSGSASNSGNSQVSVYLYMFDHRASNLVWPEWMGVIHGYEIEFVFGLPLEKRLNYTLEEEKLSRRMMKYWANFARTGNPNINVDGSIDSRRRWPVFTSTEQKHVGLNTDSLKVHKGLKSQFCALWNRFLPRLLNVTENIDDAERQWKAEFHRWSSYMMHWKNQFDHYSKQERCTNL
Text: (§1) HPLC-grade methanol and acetonitrile were purchased from Shanghai, China (Sinopharm Chemical Reagent Co., Ltd., Shanghai, China). Acetyl-cholinesterase was from electric eel, butyryl-cholinesterase was from equine serum, and acetylthiocholine iodide was purchased from Sigma-Aldrich (Sigma-Aldrich company, St. Louis, MO, USA). […] AB-8 macroporous resin was purchased from Yuanye (Yuanye Biochemical Technology Co., Ltd., Shanghai, China).
(§2) The Ellman method was used to determine the inhibitory activity of acetyl-cholinesterase and butyryl-cholinesterase of each monomer compound. Briefly, 150 µL of PBS buffer solution (pH = 7.4), 10 µL of the tested compound solution, and 20 µL of acetyl-cholinesterase or butyryl-cholinesterase solution (concentration of 0.2 U/mL) were transferred to a 96-well plate and placed in a gas bath constant temperature oscillator at 37 °C for 15 min. […] Then, 10 µL PBS was added to the blank group to exclude other irrelevant factors from affecting the experimental results and ensure the rationality of the experimental results. […] Inhibition Rate = (Anegative control group − Atest group/Anegative control group − Ablank group) × 100%(2)

Butyryl-cholinesterase = target: T2, Butyryl-cholinesterase (Equus caballus, UniProt P81908); test: biochemical; format: biochemical; details: for IC50: Ellman method, 37 °C, PBS pH 7.4, 412 nm, read-out: IC50 Value Butyrylcholinesterase
T2 construct: butyryl-cholinesterase was from equine serum; purchased Sigma-Aldrich; host or cells: equine serum
T2 sequence (P81908 whole entry): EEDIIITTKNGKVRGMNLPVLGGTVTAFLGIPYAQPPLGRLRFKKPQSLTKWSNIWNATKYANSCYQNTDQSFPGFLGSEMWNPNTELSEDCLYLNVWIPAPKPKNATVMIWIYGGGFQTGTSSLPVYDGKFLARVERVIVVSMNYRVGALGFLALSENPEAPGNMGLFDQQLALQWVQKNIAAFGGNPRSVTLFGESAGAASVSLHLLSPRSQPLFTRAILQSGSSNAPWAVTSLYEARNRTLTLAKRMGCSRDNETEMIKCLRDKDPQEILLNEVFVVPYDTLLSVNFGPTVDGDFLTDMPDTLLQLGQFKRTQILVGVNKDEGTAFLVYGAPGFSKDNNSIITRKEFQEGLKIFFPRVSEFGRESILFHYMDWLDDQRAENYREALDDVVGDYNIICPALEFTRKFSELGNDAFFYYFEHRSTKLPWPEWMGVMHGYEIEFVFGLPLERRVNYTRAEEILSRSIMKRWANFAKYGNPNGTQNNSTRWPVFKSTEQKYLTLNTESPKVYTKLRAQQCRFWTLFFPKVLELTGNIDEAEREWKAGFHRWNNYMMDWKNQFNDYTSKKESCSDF
Text: as §1, §2

[1] = Ellman method, 37 °C, PBS pH 7.4, 412 nm, read-out: IC50 Value Acetylcholinesterase

Structure (SMILES)	IC50 (Acetyl-cholinesterase; [1])	acetyl-cholinesterase inhibitory activity (in words) (Acetyl-cholinesterase; qualitative statement)	IC50 (Butyryl-cholinesterase)	butyryl-cholinesterase inhibitory activity (in words) (Butyryl-cholinesterase; qualitative statement)	IC50 (Acetyl-cholinesterase)
C=C[C@H]1C(O[C@H]2O[C@H](CO)[C@@H](O)[C@H](O)[C@H]2O)OC=C2C(=O)N3CC[C@]4(C(=O)Nc5ccccc54)[C@H]3C[C@H]21 (stereo partly drawn) [Compound 1, 7-epi-javaniside]	2.85 ± 0.5 µM	close to that of the positive drug	2.13 ± 0.1 µM	close to that of the positive drug	
C=CC1C2C[C@H]3c4[nH]c5ccccc5c4CCN3C(=O)C2=CO[C@H]1O[C@H]1O[C@H](CO)[C@@H](O)[C@H](O)[C@H]1O (stereo partly drawn) [Compound 2, vincosamide]			23.18 ± 0.14 µM		12.4 ± 0.86 µM
C=CC1C2C[C@@H]3c4[nH]c5ccccc5c4CCN3C(=O)C2=CO[C@H]1O[C@H]1O[C@H](CO)[C@@H](O)[C@H](O)[C@H]1O (stereo partly drawn) [Compound 3, strictosamide]			6.47 ± 0.72 µM		46.6 ± 0.58 µM
COC(=O)C1=COC(OC2OC(CO)C(O)C(O)C2O)C2C3CN4CCc5c([nH]c6ccccc56)C4(CC12)O3 (stereo not drawn) [Compound 4, cadambine]			30.7 ± 0.69 µM		26.1 ± 2.12 µM
COC(=O)C1=COC(OC2OC(CO)C(O)C(O)C2O)C2C(O)CN3CCc4c([nH]c5ccccc45)C3CC12 (stereo not drawn) [Compound 5, 3α-dihydrocadambine]	37 ± 1.57 µM		33.3 ± 0.51 µM		
